Source: patent publication US11327083B2, “Treatment and differential diagnosis of Cushing's disease and ectopic Cushing's syndrome” (Corcept Therapeutics, Inc., priority 2016, dated 2022)

Assays:
[1] = system: patients having Cushing's Disease; test: Mean plasma cortisol to ACTH (C:A) ratio during mifepristone treatment, patients having Cushing's Disease; format: in vivo, human
Description: (§1) Two groups of patients, which have been previously diagnosed as having Cushing's Disease, Ectopic Cushing's Syndrome using other methods, were enrolled in the study. The investigators were blind to the patients' diagnoses. Blood samples were obtained from each patient within 6 weeks prior to the enrollment in the study (“Day 1” samples). The patients were treated with mifepristone at a starting dose 300 mg daily, increased up to 1200 mg or 20 mg/kg over a period of 10 weeks. The mifepristone treatment continued for a total period of 24 weeks. Blood samples were taken during the course of the treatment, i.e., at the end of 14 days, and 6, 10, 16 and 24 weeks from the initial dose of mifepristone was given. All samples were taken at between 8-10 am on the day of the study. The ACTH levels and the cortisol levels of the plasma produced from the blood samples collected above were assayed using two-site immunometric assays (Mayo Clinic, Test ID ACTH) following the manufacturer's instructions.

[2] = system: patients having Ectopic Cushing's Syndrome; test: Mean plasma cortisol to ACTH (C:A) ratio during mifepristone treatment, patients having Ectopic Cushing's Syndrome; format: in vivo, human
Description: as §1

[3] = CD patients (n = 38), plasma, 8-10 am, mifepristone 300 mg daily increased up to 1200 mg or 20 mg/kg, Day 1 baseline mean 3.018
[4] = Ectopic patients (n = 3), plasma, 8-10 am, mifepristone 300 mg daily increased up to 1200 mg or 20 mg/kg, Day 1 baseline mean 18.552

## CC#C[C@]1(O)CC[C@H]2[C@@H]3CCC4=CC(=O)CCC4=C3[C@@H](c3ccc(N(C)C)cc3)C[C@@]21C [mifepristone, 17-β-hydrox-11-β-(4-dimethyl-aminophenyl)17-α-(1-propynyl)estra-4,9-dien-3-one]
[1]; CD patients (n = 32), plasma, 8-10 am, mifepristone 300 mg daily increased up to 1200 mg or 20 mg/kg, Day 1 baseline mean 3.018
  mean ratio of cortisol to ACTH, Week 16: 5.788
[1]; CD patients (n = 33), plasma, 8-10 am, mifepristone 300 mg daily increased up to 1200 mg or 20 mg/kg, Day 1 baseline mean 3.018
  mean ratio of cortisol to ACTH, Week 10: 6.852
[1]; [3]
  mean ratio of cortisol to ACTH, Week 6: 3.396
  mean ratio of cortisol to ACTH, Week 24/ET: 4.999
[1]; Cushing's Disease patients, peak at the end of 10 weeks of mifepristone treatment
  mean GRA-exposed C:A ratio relative to the mean baseline C:A ratio (peak): more than 2 fold
[2]; Ectopic Cushing's Syndrome patients, end of 24 weeks treatment
  mean GRA-exposed C:A ratio as % of the baseline ratio: 11.6%
[2]; Ectopic Cushing's Syndrome patients, end of the six weeks' treatment
  mean GRA-exposed C:A ratio as % of the mean baseline ratio: less than 50%
[2]; [4]
  mean ratio of cortisol to ACTH, Week 6: 9.241
  mean ratio of cortisol to ACTH, Week 10: 6.722
  mean ratio of cortisol to ACTH, Week 16: 0.600
  mean ratio of cortisol to ACTH, Week 24/ET: 2.154
